Test results taken from US20210348125A1, “INDUCED STEM MEMORY T CELLS AND METHODS OF USE THEREOF” (Augusta University Research Institute, Inc., priority 2017, published 2021).

Columns and labels:
[1] = tested on: pMel-1 CD8^+ T-cells; experiment: In vitro activation of pMel-1 CD8+ T-cells with gp100 peptide with or without MEKi; assay type: cell-based, mouse
Method: Mice and cell culture. 4-6-week-old C57BL/6 mice (wild-type (WT) and pMel-1) from Jackson Laboratory or in-house bred pMel-1 mice with transgenic CD8^+ T-cells having TCR from melanoma-specific gp10025-33 peptide were used as outlined in various experiments. Animals had free access to water and food. All experiments were performed under protocols approved by the Augusta University Georgia Cancer Center Institutional Animal Care and Use Committee (IACUC). Cancer cell lines used in the present study included TC1 (kindly provided by Dr. T-C Wu at Johns Hopkins University) and B16-melanoma (obtained from American Type Culture Collection (ATCC)). […] Primary murine CD8^+ cells were isolated by fluorescence-activated cell sorting (FACS) and in some cases by negative selection using magnetic beads (Miltenyi Biotec) and cultured in RPMI 1640 medium supplemented with 10% FBS, 2 mM glutamine, 10 mM HEPES and 55 μM β-mercaptoethanol. […]
Flow cytometry analyses. […] TMRM (Tetramethylrhodamine, methyl ester) is a cell-permeant, cationic, red-orange fluorescent dye that is readily sequestered by active mitochondria and has been used for estimation of mitochondrial potential was used as described before (Sukumar, M., et al., Cell Metabolism, 23: 63-76 (2016)). […]
Metabolic assays. […] OCR and ECAR were measured with an XFp flux analyzer (Seahorse Bioscience). […]

[2] = tested on: Abl1, AKT3, c-RAF, CamK1, CDK2, c-Met; details: cited from earlier work
[3] = target: MEK1 (Homo sapiens, UniProt Q02750); details: cited from earlier work
Chain of MEK1 (Q02750 whole entry, species assumed): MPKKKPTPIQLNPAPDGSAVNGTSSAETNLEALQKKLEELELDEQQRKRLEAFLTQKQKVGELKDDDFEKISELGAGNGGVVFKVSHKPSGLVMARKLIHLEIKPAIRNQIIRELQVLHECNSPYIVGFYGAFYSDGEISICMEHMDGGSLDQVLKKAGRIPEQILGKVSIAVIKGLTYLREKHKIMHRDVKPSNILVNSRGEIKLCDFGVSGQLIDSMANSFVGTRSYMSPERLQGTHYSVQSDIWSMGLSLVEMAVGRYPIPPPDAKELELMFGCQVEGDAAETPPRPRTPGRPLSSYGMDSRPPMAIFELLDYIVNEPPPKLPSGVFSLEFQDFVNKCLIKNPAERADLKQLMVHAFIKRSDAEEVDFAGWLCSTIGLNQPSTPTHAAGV

[4] = tested on: ERK1 or ERK2; details: cited from earlier work
[5] = tested on: AB1-HA tumor model; details: CTX treatment at Day 9; cited from earlier work
[6] = tested on: pMel-1 CD8^+ T-cells; experiment: Antigen re-challenge (recall response) of activated CD8+ T-cells; assay type: cell-based, mouse; details: re-challenge with gp100 peptide 72 hrs; vs untreated
From the text: FIGS. 4A-4C show FACS analysis of memory phenotype of activated cells (gp100 vs gp100 +MEKi) after antigen (Ag) re-challenge with gp100 peptide for 72 hrs. […]. FIGS. 4M-4O show the scheme of ACT of B16 tumor-bearing mice with respectively activated CD8^+ T-cells as indicated FIG. 4M, estimation of tumor volume FIG. 4N and percent survival FIG. 4O in treated groups. FIGS. 4P-4R show the estimation of numbers of adoptively transferred cells in spleens of treated mice 30 days after ACT as indicated. For the untreated (UT) and control (CTX) groups where the endpoint for euthanasia was reached earlier, the mice were sacrificed and spleens harvested and stored as single-cell suspensions at −80° C. At the end of the study, all samples were stained and processed together for FACS analysis. Representative of two experiments is shown. *P<0.05, **P<0.01, ***P<0.001.
Cell activation, drug treatment and adoptive transfer. FACS-sorted CD8^+ cells from pMel-1 mice were activated with gp100 peptide ([…] (SEQ ID NO:2); 1 μM/10^6 cells/mL) either alone or in combination with MEKi (500-1000 nM) in T-cell medium supplemented with 30 units of IL2 for 48 hours unless otherwise stated. In some experiments, at 48 h cells were washed and re-incubated in IL2-containing medium supplemented with gp100 and/or anti-OX40-Ab for 72 hours. […]

## CCOC(=O)[C@@]1(CCCCCCOc2ccc(Cl)cc2)CO1 [etomoxir]
[1]
  cell proliferation of MEKi-treated pMel-1 CD8+ T-cells in the presence of etomoxir: significant decrease in cell proliferation

## Cn1c(=O)c(F)c(Nc2ccc(I)cc2F)c2c(=O)n(C[C@@H](O)CO)cnc21 [TAK-733]
[2]
  activity on Abl1, AKT3, c-RAF, CamK1, CDK2, c-Met, etc.: inactive

## COc1cccc(-c2cc(=O)c3ccccc3o2)c1N [PD98059]
[3]
  MEK-1-mediated activation of MAPK: specifically inhibits
[4]
  direct inhibition of ERK1 or ERK2: does not directly inhibit

## O=P1(N(CCCl)CCCl)NCCCO1 (stereo not shown) [CTX, Cyclophosphamide]
[5]
  cure rate: 75%

## Cn1cnc2c(F)c(Nc3ccc(Br)cc3Cl)c(C(=O)NOCCO)cc21 [Selumetinib]
[6]
  recall response, expansion of terminal effector cells (CD62L-CD44+): more than 2.5 fold

## CC[C@H]1/C=C/C=C/C[C@@H](C)[C@H](O)[C@@](C)(O)C(=O)[C@@H](C)[C@H](O)[C@@H](C)C(=O)[C@@H](C)[C@H](O)[C@@H](C)/C=C/C(=O)O[C@@H]2[C@H](C)[C@H](CC1)O[C@]1(CC[C@H](C)[C@H](C[C@@H](C)O)O1)[C@H]2C [oligomycin]
[1]; gp100 activated, MEKi-treated cells
  proliferation of MEKi-treated CD8+ T-cells with oligomycin: inhibition of proliferation
